Patent US20030082610A1, “Use of a gene change in gene GNB3 coding for the B3 subunit of human G proteins” (SniP Biotech GmbH & Co. KG, priority 2001, published 2003)

Test: placebo-controlled clinical study on the gene-dependent (GNB3 C825T) effectiveness of Sibutramine for weight reduction
Assay type: in vivo, human
Protocol: A placebo-controlled clinical study on the gene-dependent effectiveness of Sibutramine was carried out. This study included 105 patients with a body-mass index between 30 and 40 kg/m^2. All patients received a reduced calorie diet of maximum 1500-2000 kcal per day. Moreover the patients were urged to increase their physical activity and for example to walk at least 30 minutes a day at an increased pace. Forty nine patients received 15 mg Sibutramine daily to support weight reduction, while 56 patients received a placebo. The therapy was continued for 54 weeks. The body weight and body size of all patients were known at the beginning of the study and after 54 weeks of therapy. The end points of the study were the weight loss after 54 weeks, the number of patients with at least 5% reduction in body weight, and the number of patients with at least 10% reduction of body weight.
From all patients, DNA was isolated from a blood sample in order to analyze the C825T allele status in gene GNB3. Genotyping was done by means of PCR reaction and restriction analysis in processes familiar to one skilled in the area. The study results are shown in the graph of FIG. 1. In the placebo group, the average weight reduction was 5.3±7.3 kg, while the weight loss in the group treated with Sibutramine was 10.0±8.7 kg. This difference was statistically significant (p=0.036). FIG. 1 illustrates the genotype-dependent weight loss. In the placebo group, the average weight reduction was 9.1±2.8 kg for the TT genotype, 7.4±1.5 kg for the TC genotype, but only 2.8±1.1 kg for the CC genotype. This difference was statistically significant (One-way ANOVA, P=0.03).

With `CC(C)CC(N(C)C)C1(c2ccc(Cl)cc2)CCC1` (stereo not shown) [Sibutramine] the “odds ratio (OR) for a 5% weight loss, Sibutramine compared to placebo” value (825T allele carriers, 54 weeks, p=0.26, not significant) was 1.8, the “odds ratio (OR) for a 10% weight loss, Sibutramine compared to placebo” value (825T allele carriers, 54 weeks, p=0.4) was 1.6 and the weight loss (CC genotype (825C allele carrier), 15 mg Sibutramine daily, 54 weeks) was 9.9 kg. For the same compound, the “odds ratio (OR) for a 5% weight reduction, long-term, Sibutramine versus placebo” value (CC genotype, re-examined 2 years after the end of the study, p=0.0358) was 4.4, the “further weight loss compared to placebo” value (TT/TC genotype (825T allele carriers), 15 mg Sibutramine daily, 54 weeks) was “no further weight loss compared to the placebo” and the “weight loss (average weight reduction)” value (all genotypes, patients BMI 30-40 kg/m^2, 15 mg Sibutramine daily plus reduced calorie diet and physical activity, after 54 weeks) was 10.0 ± 8.7 kg. The “effect of Sibutramine compared to placebo on weight loss” value (carriers of the 3882A allele and the 5249G allele) was “same favorable results as for the 825C allele carrier”, the “odds ratio (OR) for a 5% weight reduction, long-term, Sibutramine versus placebo” value (genotype not printed (contrasted with CC), 2 years after the end of the study, p 0.2139, not significant) was 2.333 and the “odds ratio (OR) for losing more than 5% body weight, Sibutramine compared to placebo” value (homozygotic 825C allele carriers (CC genotype), 54 weeks, p 0.0002) was 12.0. The “odds ratio (OR) for the 10% weight reduction, Sibutramine compared to placebo” value (homozygotic 825C allele carriers (CC genotype), 54 weeks, p 0.0028) was 9.69.
